Laboratory results as given in patent US20170205426A1, “RAPID MASS SPECTROMETRY METHODS FOR ANTIMICROBIAL SUSCEPTIBILITY TESTING USING TOP-DOWN MASS SPECTROMETRY” (priority 2016, published 2017).

Assays:
KPC-2 = assay: Bottom-up mass spectrometry sequence coverage of KPC-2 in K. pneumoniae cultures induced with ertapenem; type: cell-based, Klebsiella pneumoniae; conditions: for KPC-2 Sequence Coverage: induced with 0.5 mM ertapenem
Method: (§1) In some embodiments, a sample of the microbial culture or biological sample is exposed to conditions that induce antimicrobial resistance in the microorganisms prior to testing. In other embodiments, a sample of the microbial culture or biological sample is tested without intentionally inducing antimicrobial resistance in the microorganisms. In certain embodiments, many resistance mechanisms may not have to be induced in order to detect the target proteins of interest. For example, we have observed that the production of PBP2a from MRSA samples varies in its baseline expression without induction. In examining expression of carbapenem-resistant Enterobacteriaceae (CRE)-related resistances, several strains of Klebsiella pneumoniae that contained different combinations of the resistance marker beta-lactamase were tested to determine the effect on detection for induced and non-induced samples. Table 1 lists various resistant and susceptible strains of K. pneumoniae which were tested with 0.5 mM of ertapenem as an inducer. In these experiments, bottom-up mass spectrometry was used to measure sequence coverage of two representative beta-lactamases, KPC-2 and CTX-M15. The percent sequence coverage observed is an approximate measure of the amount of a given protein present in any given extract. The higher the percent sequence coverage observed, the higher the level of that given protein in an extract.

CTX-M15 = assay: Bottom-up mass spectrometry sequence coverage of CTX-M15 in K. pneumoniae cultures induced with ertapenem; type: cell-based, Klebsiella pneumoniae; conditions: for CTX-M15 Sequence Coverage: induced with 0.5 mM ertapenem
Method: as §1

[1] = variety of K. pneumoniae strains, 0.5 mM ertapenem as inducer

C[C@@H](O)[C@H]1C(=O)N2C(C(=O)O)=C(S[C@@H]3CN[C@H](C(=O)Nc4cccc(C(=O)O)c4)C3)[C@H](C)[C@H]12 [ertapenem]
KPC-2 Sequence Coverage (KPC-2; strain 13883 (Susceptible)): not detected | KPC-2 Sequence Coverage (KPC-2; strain BAA-1903 (Resistant)): 73% ± 0% | KPC-2 Sequence Coverage (KPC-2; strain BAA-1905 (Resistant)): 85% ± 5% | KPC-2 Sequence Coverage (KPC-2; strain BAA-2473 (Resistant)): not detected | KPC-2 Sequence Coverage (KPC-2; strain BAA-2578 (Resistant)): not detected | percent sequence coverage of KPC-2, induced versus non-induced (KPC-2; [1]): the same regardless of induction | CTX-M15 Sequence Coverage (CTX-M15; strain 13883 (Susceptible)): not detected | CTX-M15 Sequence Coverage (CTX-M15; strain BAA-1903 (Resistant)): not detected | CTX-M15 Sequence Coverage (CTX-M15; strain BAA-1905 (Resistant)): not detected | CTX-M15 Sequence Coverage (CTX-M15; strain BAA-2473 (Resistant)): 70% ± 0% | CTX-M15 Sequence Coverage (CTX-M15; strain BAA-2578 (Resistant)): 60% ± 2% | percent sequence coverage of CTX-M15, induced versus non-induced (CTX-M15; [1]): the same regardless of induction
